Reference: patent publication US20220380370A1 (Goldfinch Bio, Inc., priority 2019, published 2022)

Biological target: T1, CB1 receptor (Homo sapiens, UniProt P21554)
T1 construct: Perkin Elmer (CB1-CHO cells); host or cells: Flp-In CHO cells or CB1-CHO cells, stably expressing
Experiment: CB1 cAMP antagonist assay (LANCE Ultra cAMP kit)
Format: cell-based
Conditions: CHO cells stably expressing the CB1 receptor; forskolin and agonist CP55940 at EC90
From the text: LANCE Ultra cAMP kit (Perkin Elmer) was used to quantitate the amount of 3′,5′-cyclic adenosine monophosphate (cAMP) produced in Flp-In CHO cells (Invitrogen) stably expressing the CB1 receptor, CB1-CHO cells (Perkin Elmer) stably expressing the CB1 receptor, or CB2-CHO cells (Perkin Elmer) stably expressing the CB2 receptor.
Forskolin was initially titrated to determine the response of the cells. The EC90 of forskolin was used for compound testing. CP55940 was titrated and used with EC90 of forskolin to determine the level of agonist stimulation. EC90 of the agonist was used for subsequent compound testing. For the CB1 assay, Forskolin (Sigma), CP55940 (Cayman Chemicals), and AM251 (MCE) were diluted in 100% DMSO, starting at 100 mM, 1 mM, and 1 mM respectively, in 3-fold serial dilutions. For the CB2 assay, Forskolin (Sigma), CP55940 (Cayman Chemicals), and AM630 (MCE) were diluted in 100% DMSO, starting at 100 mM, 1 mM, and 30 mM respectively, in 3-fold serial dilutions. Test compounds were diluted in 100% DMSO starting from 10 mM, 3-fold dilutions. The cAMP assay buffer contains 1× Hank's Buffered Saline Solution with Ca^2+ and Mg^2+ (Invitrogen), 5.3 mM HEPES (Invitrogen), 0.05% BSA, 0.5 mM IBMX (Sigma). For all assays, cells were harvested, counted, and diluted in cAMP assay buffer to 1×10^5 cells/mL. Only cells with viability >85% were used for the assay. Cells were seeded at 1000 cells/well in 384-well plates and 10 nL/well AM251 (for CB1), AM630 (for CB2) or test compound was added and incubated at 37° C. for 10 min. Then forskolin and agonist were added to reach their EC90 and incubated at 25° C. for 30 min. To detect the amount of cAMP produced, 5 μL of a 100× diluted stock of Eu-cAMP tracer and 5 μL of 200× diluted stock of Ulight-anti-cAMP were added to each well, and the plate incubated at 25° C. for 15 min. The FRET signal was read using an EnVision microplate reader (λex=320 nm, λem=615 nm and 665 nm). The results are expressed as % Inhibition, where % inhibition=100−100×(U−C2)/(C1−C2), where U is the FRET ratio (λem (665 nm)/λem (615 nm)) of sample, C1 is the average of the high controls (signal with no antagonist added), and C2 is the average of low controls (signal with the highest concentration of AM251 or AM630 antagonist). The IC50 is determined by fitting the percentage of inhibition as a function of compound concentrations with the Hill equation, using a 4-parameter fit in either XLfit or GraphPad Prism.

T1 sequence (P21554 whole entry): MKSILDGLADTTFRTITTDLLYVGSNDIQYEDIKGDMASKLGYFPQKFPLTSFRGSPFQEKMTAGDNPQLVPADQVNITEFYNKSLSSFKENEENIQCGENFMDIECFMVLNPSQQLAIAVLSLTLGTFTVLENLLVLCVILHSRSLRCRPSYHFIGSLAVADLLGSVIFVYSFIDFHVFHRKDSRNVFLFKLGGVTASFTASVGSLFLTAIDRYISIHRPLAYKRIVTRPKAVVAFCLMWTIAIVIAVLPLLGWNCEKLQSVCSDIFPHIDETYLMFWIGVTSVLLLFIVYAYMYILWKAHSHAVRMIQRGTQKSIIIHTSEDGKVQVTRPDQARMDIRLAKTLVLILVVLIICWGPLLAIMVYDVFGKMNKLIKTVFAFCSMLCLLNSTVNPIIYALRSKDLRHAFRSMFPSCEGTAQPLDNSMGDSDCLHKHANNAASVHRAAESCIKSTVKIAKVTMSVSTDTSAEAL

| IC50 | Compound |
| --- | --- |
| < 0.1 µM | NC(=O)Cn1c(=O)c2c(nc(-c3ccccc3Cl)n2-c2ccc(Cl)cc2)n(CC2COCCO2)c1=O (racemic) [Compound 124, 2-[8-(2-chlorophenyl)-7-(4-chlorophenyl)-3-(1,4-dioxan-2-ylmethyl)-2,6-dioxopurin-1-yl]acetamide] |
| 0.1 to 1 µM | NC(=O)Cn1c(=O)c2c(nc(-c3ccccc3Cl)n2-c2ccc(Cl)cc2)n(CC2COCCO2)c1=O (stereo in doubt) [Compound 127, 2-[8-(2-chlorophenyl)-7-(4-chlorophenyl)-3-[(2R)-1,4-dioxan-2-ylmethyl]-2,6-dioxopurin-1-yl]acetamide] |
| 0.1 to 1 µM | NC(=O)Cn1c(=O)c2c(nc(-c3ccccc3Cl)n2-c2ccc(Cl)cc2)n(CC2COCCO2)c1=O (stereo in doubt) [Compound 128, 2-[8-(2-chlorophenyl)-7-(4-chlorophenyl)-3-[(2S)-1,4-dioxan-2-ylmethyl]-2,6-dioxopurin-1-yl]acetamide] |
| 0.1 to 1 µM | CC(c1ccc(C(=O)NCCO)cc1)n1c(=O)n(C)c(=O)c2c1nc(-c1ccccc1Cl)n2-c1ccc(Cl)cc1 (stereo in doubt) [Compound 134, 4-[(1R)-1-[8-(2-chlorophenyl)-7-(4-chlorophenyl)-1-methyl-2,6-dioxopurin-3-yl]ethyl]-N-(2-hydroxyethyl)benzamide] |
| 0.1 to 1 µM | CC(C(N)=O)n1c(=O)c2c(nc(-c3ccccc3Cl)n2-c2ccc(Cl)cc2)n(C2CCOCC2)c1=O (stereo in doubt) [Compound 138, (2R)-2-[8-(2-chlorophenyl)-7-(4-chlorophenyl)-3-(oxan-4-yl)-2,6-dioxopurin-1-yl]propanamide] |
| < 0.1 µM | CC(C(N)=O)n1c(=O)c2c(nc(-c3ccccc3Cl)n2-c2ccc(Cl)cc2)n(CC2CCOCC2)c1=O (stereo in doubt) [Compound 140, (2S)-2-[8-(2-chlorophenyl)-7-(4-chlorophenyl)-3-(oxan-4-ylmethyl)-2,6-dioxopurin-1-yl]propanamide] |
| < 0.1 µM | CC(C(N)=O)n1c(=O)c2c(nc(-c3ccccc3Cl)n2-c2ccc(Cl)cc2)n(CC2CCS(=O)(=O)CC2)c1=O (stereo in doubt) [Compound 142, (2S)-2-[8-(2-chlorophenyl)-7-(4-chlorophenyl)-3-[(1,1-dioxo-1 lambda6-thian-4-yl)methyl]-2,6-dioxopurin-1-yl]propanamide] |
| < 0.1 µM | CC(C(N)=O)n1c(=O)c2c(nc(-c3ccccc3Cl)n2-c2ccc(Cl)cc2)n(CC2CCS(=O)(=O)CC2)c1=O (stereo in doubt) [Compound 144, (2R)-2-[8-(2-chlorophenyl)-7-(4-chlorophenyl)-3-[(1,1-dioxo-1 lambda6-thian-4-yl)methyl]-2,6-dioxopurin-1-yl]propanamide] |
| 0.1 to 1 µM | NC(=O)Cn1c(=O)c2c(nc(-c3ccccc3Cl)n2-c2ccc(Cl)cc2)n(Cc2ccc(CC(O)CO)cc2)c1=O (stereo in doubt) [Compound 146, 2-[8-(2-chlorophenyl)-7-(4-chlorophenyl)-3-([4-[(2S)-2,3-dihydroxypropyl]phenyl]methyl)-2,6-dioxopurin-1-yl]acetamide] |
| 0.1 to 1 µM | NC(=O)Cn1c(=O)c2c(nc(-c3ccccc3Cl)n2-c2ccc(Cl)cc2)n(Cc2ccc(CC(O)CO)cc2)c1=O (stereo in doubt) [Compound 148, 2-[8-(2-chlorophenyl)-7-(4-chlorophenyl)-3-([4-[(2R)-2,3-dihydroxypropyl]phenyl]methyl)-2,6-dioxopurin-1-yl]acetamide] |
| < 0.1 µM | CC(C)(C)C(=O)OCn1c(=O)c2c(nc(-c3ccccc3Cl)n2-c2ccc(Cl)cc2)n(C2CCCCC2)c1=O [Compound 102] |
| < 0.1 µM | CC(=O)N1CCC(Cn2c(=O)n(C)c(=O)c3c2nc(-c2ccccc2Cl)n3-c2ccc(Cl)cc2)CC1 [Compound 107, 3-[(1-acetylpiperidin-4-yl)methyl]-8-(2-chlorophenyl)-7-(4-chlorophenyl)-1-methylpurine-2,6-dione] |
| < 0.1 µM | COC(=O)c1ccc(Cn2c(=O)n(C)c(=O)c3c2nc(-c2ccccc2Cl)n3-c2ccc(Cl)cc2)cc1 [Compound 108] |
| < 0.1 µM | Cn1c(=O)c2c(nc(-c3ccccc3Cl)n2-c2ccc(Cl)cc2)n(Cc2ccc(Cl)cc2)c1=O [Compound 109, 8-(2-chlorophenyl)-7-(4-chlorophenyl)-3-[(4-chlorophenyl)methyl]-1-methyl-2,3,6,7-tetrahydro-1H-purine-2,6-dione] |
| < 0.1 µM | Cn1c(=O)c2c(nc(-c3ccccc3Cl)n2-c2ccc(Cl)cc2)n(CC2CCCCC2)c1=O [Compound 110, 8-(2-chlorophenyl)-7-(4-chlorophenyl)-3-(cyclohexylmethyl)-1-methyl-2,3,6,7-tetrahydro-1H-purine-2,6-dione] |
| 1 to 5 µM | Cn1c(=O)c2c(nc(-c3ccccc3Cl)n2-c2ccc(Cl)cc2)n(Cc2ccc(C(=O)O)cc2)c1=O [Compound 111, 4-[[8-(2-chlorophenyl)-7-(4-chlorophenyl)-1-methyl-2,6-dioxo-2,3,6,7-tetrahydro-1H-purin-3-yl]methyl]benzoic acid] |
| ≥ 5 µM | Cn1c(=O)c2c(nc(-c3ccccc3Cl)n2-c2ccc(Cl)cc2)n(CC2CCN(C[C@H](O)CO)CC2)c1=O [Compound 113, 8-(2-chlorophenyl)-7-(4-chlorophenyl)-3-([1-[(2S)-2,3-dihydroxypropyl]piperidin-4-yl]methyl)-1-methyl-2,3,6,7-tetrahydro-1H-purine-2,6-dione] |
| 0.1 to 1 µM | Cn1c(=O)c2c(nc(-c3ccccc3Cl)n2-c2ccc(Cl)cc2)n(CC2CCN(CC(N)=O)CC2)c1=O [Compound 115, 2-(4-[[8-(2-chlorophenyl)-7-(4-chlorophenyl)-1-methyl-2,6-dioxo-2,3,6,7-tetrahydro-1H-purin-3-yl]methyl]piperidin-1-yl)acetamide] |
| ≥ 5 µM | CN1CCC(Cn2c(=O)n(C)c(=O)c3c2nc(-c2ccccc2Cl)n3-c2ccc(Cl)cc2)CC1 [Compound 116, 8-(2-chlorophenyl)-7-(4-chlorophenyl)-1-methyl-3-[(1-methylpiperidin-4-yl)methyl]-2,3,6,7-tetrahydro-1H-purine-2,6-dione] |
| ≥ 5 µM | NC(=O)Cn1c(=O)c2c(nc(-c3ccccc3Cl)n2-c2ccc(Cl)cc2)n(CC2CCN(CCO)CC2)c1=O [Compound 117] |
| 1 to 5 µM | CN1CCN(Cc2ccc(Cn3c(=O)n(CC(N)=O)c(=O)c4c3nc(-c3ccccc3Cl)n4-c3ccc(Cl)cc3)cc2)CC1 [Compound 118] |
| < 0.1 µM | O=c1[nH]c(=O)n(Cc2ccc(Cl)cc2)c2nc(-c3ccccc3Cl)n(-c3ccc(Cl)cc3)c12 [Compound 119, 8-(2-chlorophenyl)-7-(4-chlorophenyl)-3-[(4-chlorophenyl)methyl]-2,3,6,7-tetrahydro-1H-purine-2,6-dione] |
| 0.1 to 1 µM | CN(CCO)Cc1ccc(Cn2c(=O)n(C)c(=O)c3c2nc(-c2ccccc2Cl)n3-c2ccc(Cl)cc2)cc1 [Compound 120] |
| < 0.1 µM | NC(=O)Cn1c(=O)c2c(nc(-c3ccccc3Cl)n2-c2ccc(Cl)cc2)n(Cc2ccc(CN3CCOCC3)cc2)c1=O [Compound 121, 2-[8-(2-chlorophenyl)-7-(4-chlorophenyl)-3-([4-[(morpholin-4-yl)methyl]phenyl]methyl)-2,6-dioxo-2,3,6,7-tetrahydro-1H-purin-1-yl]acetamide] |
